Measured values taken from patent publication US7189720B2 (H. Lundbeck A/S, priority 1999, dated 2007).
Read-outs that look alike come from different tables or passages of the source.

What was measured:
[1] = biological target: T1, human Y4 receptor (Homo sapiens, UniProt P50391); assay: Radioligand binding to membranes, cloned human Y4 receptor; conditions: hNPY-4 (one cell for Y1, Y2, Y4), read-out: Ki, nM hNPY-1,2,4
T1 construct: expressed in transfected cells; host or cells: mouse fibroblast LM(tk-) cells, e.g. L-hY4-3 (ATCC CRL-11779)
T1 sequence (P50391 whole entry): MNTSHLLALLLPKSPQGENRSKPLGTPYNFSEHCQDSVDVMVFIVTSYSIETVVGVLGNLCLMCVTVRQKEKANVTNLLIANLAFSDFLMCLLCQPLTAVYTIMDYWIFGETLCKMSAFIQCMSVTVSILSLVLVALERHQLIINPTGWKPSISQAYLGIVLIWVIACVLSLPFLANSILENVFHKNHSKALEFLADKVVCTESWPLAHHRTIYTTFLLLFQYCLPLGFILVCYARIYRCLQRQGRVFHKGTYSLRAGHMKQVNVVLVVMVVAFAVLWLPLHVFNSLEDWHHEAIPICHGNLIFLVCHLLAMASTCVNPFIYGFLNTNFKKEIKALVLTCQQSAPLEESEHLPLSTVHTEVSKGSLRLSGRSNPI
Method: (§1) Binding of the compounds of the present invention to human Y1, Y2, Y4, and Y5 receptors was evaluated using stably transfected 293 or LM(tk-) cells as described above.
(§2) Membranes were harvested from COS-7 cells 48 hours after transient transfection. Adherent cells were washed twice in ice-cold phosphate buffered saline (138 mM NaCl, 8.1 mM Na2HPO4, 2.5 mM KCl, 1.2 mM KH2PO4, 0.9 mM CaCl2, 0.5 mM MgCl2, pH 7.4) and lysed by sonication in ice-cold sonication buffer (20 mM Tris-HCl, 5 mM EDTA, pH 7.7). Large particles and debris were cleared by low speed centrifugation (200×g, 5 min, 4° C.). Membranes were collected from the supernatant fraction by centrifugation (32,000×g, 18 min, 4° C.), washed with ice-cold hypotonic buffer, and collected again by centrifugation (32,000×g, 18 min, 4° C.). The final membrane pellet was resuspended by sonication into a small volume of ice-cold binding buffer (˜1 ml for every 5 plates: 10 mM NaCl, 20 mM HEPES, 0.22 mM KH2PO4, 1.26 mM CaCl2, 0.81 mM MgSO4, pH 7.4). Protein concentration was measured by the Bradford method (Bradford, 1976) using Bio-Rad Reagent, with bovine serum albumin as a standard. Membranes were held on ice for up to one hour and used fresh, or flash-frozen and stored in liquid nitrogen.
(§3) Membranes were prepared similarly from 293, LM(tk-), and NIH-3T3 cells.
(§4) Membrane suspensions were diluted in binding buffer supplemented with 0.1% bovine serum albumin to yield an optimal membrane protein concentration so that ^125I-PYY (or alternative radioligand such as ^125I-NPY, ^125I-NYY3-36, or ^125I-[Leu^31Pro^34]PYY) bound by membranes in the assay was less than 10% of ^125I-PYY (or alternative radioligand) delivered to the sample (100,000 dpm/sample=0.08 nM for competition binding assays). ^125I-PYY (or alternative radioligand) and peptide competitors were also diluted to desired concentrations in supplemented binding buffer. Individual samples were then prepared in 96-well polypropylene microtiter plates by mixing ^125I-PYY (25 μL) (or alternative radioligand), competing peptides or supplemented binding buffer (25 μL), and finally, membrane suspensions (200 μL). Samples were incubated in a 30° C. water bath with constant shaking for 120 min. Incubations were terminated by filtration over Whatman GF/C filters (pre-coated with 1% polyethyleneimine and air-dried before use), followed by washing with 5 mL of ice-cold binding buffer. Filter-trapped membranes were impregnated with MeltiLex solid scintillant (Wallac, Turku, Finland) and counted for ^125I in a Wallac Beta-Plate Reader. Alternatively, incubations were carried out in GF/C filter plates (pre-coated with 1% polyethyleneimine and air-dried before use), followed by vacuum filtration and three washes of 300 μL of ice-cold binding buffer. 50 μL of UltimaGold (Packard) scintillant were added and counted for ^125I, in a Wallac MicroBeta Trilux. Non-specific binding was defined by 300 nM human NPY for all receptors except the Y4 subtypes; 100 nM human PP was used for the human Y4 and 100 nM rat PP for the rat Y4.

[2] = biological target: T2, human Y2 receptor (Homo sapiens, UniProt P49146); assay: Radioligand binding to membranes, cloned human Y2 receptor
T2 sequence (P49146 1-381): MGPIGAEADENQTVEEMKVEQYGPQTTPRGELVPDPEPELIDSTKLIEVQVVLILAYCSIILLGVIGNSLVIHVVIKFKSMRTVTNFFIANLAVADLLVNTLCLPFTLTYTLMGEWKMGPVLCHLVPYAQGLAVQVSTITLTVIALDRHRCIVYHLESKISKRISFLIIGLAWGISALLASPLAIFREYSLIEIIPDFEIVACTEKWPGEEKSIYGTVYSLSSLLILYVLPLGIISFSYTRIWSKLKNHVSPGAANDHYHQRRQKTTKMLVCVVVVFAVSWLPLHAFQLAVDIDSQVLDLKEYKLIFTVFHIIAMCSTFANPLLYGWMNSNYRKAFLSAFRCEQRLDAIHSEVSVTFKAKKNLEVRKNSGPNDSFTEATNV
Method: as §1, §2, §3, §4

[3] = biological target: T3, human Y5 receptor (Homo sapiens, UniProt Q15761); assay: Radioligand binding to membranes, cloned human Y5 receptor
T3 construct: expressed in transfected cells; host or cells: mouse fibroblast LM(tk-) cells, e.g. L-hY5-7 (ATCC CRL-11995)
T3 sequence (Q15761 1-445): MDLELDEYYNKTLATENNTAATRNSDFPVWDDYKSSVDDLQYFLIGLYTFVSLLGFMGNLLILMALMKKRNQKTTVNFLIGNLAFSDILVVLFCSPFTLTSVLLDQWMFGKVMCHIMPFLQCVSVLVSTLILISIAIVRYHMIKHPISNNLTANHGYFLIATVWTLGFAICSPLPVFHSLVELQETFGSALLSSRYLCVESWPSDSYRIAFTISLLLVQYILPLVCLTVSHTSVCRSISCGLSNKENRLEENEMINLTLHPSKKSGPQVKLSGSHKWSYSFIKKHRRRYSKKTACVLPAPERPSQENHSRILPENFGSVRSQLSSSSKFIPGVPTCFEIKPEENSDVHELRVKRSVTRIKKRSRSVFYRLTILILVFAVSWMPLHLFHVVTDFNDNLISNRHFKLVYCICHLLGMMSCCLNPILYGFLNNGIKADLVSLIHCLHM

[4] = biological target: T4, human Y1 receptor (Homo sapiens, UniProt P25929); assay: Radioligand binding to membranes, cloned human Y1 receptor; conditions: hNPY-1 (one cell for Y1, Y2, Y4), read-out: Ki, nM hNPY-1,2,4
T4 construct: expressed in transfected cells; host or cells: human embryonic kidney 293 cells, e.g. 293-hY1-5 (ATCC CRL-12121)
T4 sequence (P25929 1-384): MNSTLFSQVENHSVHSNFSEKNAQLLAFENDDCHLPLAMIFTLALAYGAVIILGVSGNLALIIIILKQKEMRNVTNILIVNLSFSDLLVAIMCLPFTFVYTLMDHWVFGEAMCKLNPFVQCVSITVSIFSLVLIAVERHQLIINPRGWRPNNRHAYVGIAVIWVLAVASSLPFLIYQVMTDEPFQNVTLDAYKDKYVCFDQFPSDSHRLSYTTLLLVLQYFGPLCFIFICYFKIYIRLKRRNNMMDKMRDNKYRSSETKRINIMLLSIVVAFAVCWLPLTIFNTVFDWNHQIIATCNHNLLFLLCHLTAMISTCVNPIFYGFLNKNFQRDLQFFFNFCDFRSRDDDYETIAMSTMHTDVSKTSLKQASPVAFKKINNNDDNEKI
Method: as §1, §2, §3, §4

[5] = Table 6, read-out: Ki, nM hNPY-5
[6] = Table 5, read-out: Ki, nM hNPY-5
[7] = Table 2, read-out: Ki (nM) hNPY-5

Question: What does the source list for `O=S(=O)(NCCCCCNc1nc2c(s1)CCSc1ccc(F)cc1-2)c1ccccc1F` [Example 161, N1-{5-[(9-Fluoro-4,5-dihydrobenzo[2,3]thiepino[4,5-d][1,3]thiazol-2-yl)amino]pentyl}-2-fluoro-1-benzenesulfonamide]?
Answer: Ki ([1]; Table 6): > 10000 nM; Ki [2]: > 10000 nM; Ki [3, 5]: 4.9 nM; Ki ([4]; Table 6): > 10000 nM

Question: For `COc1ccc(C)cc1S(=O)(=O)NCCCCCNc1nc2c(s1)CCSc1ccc(F)cc1-2` [Example 160, N1-{5-[(9-Fluoro-4,5-dihydrobenzo[2,3]thiepino[4,5-d][1,3]thiazol-2-yl)amino]pentyl}-2-methoxy-5-methyl-1-benzenesulfonamide], which Ki ([1]; Table 6) is on record?
Answer: > 10000 nM

Question: What about the Ki [2] of the same molecule?
Answer: > 10000 nM

Question: And the Ki [3, 5]?
Answer: 2.8 nM

Question: What about the Ki ([4]; Table 6) of the same molecule?
Answer: > 10000 nM

Question: For `COc1ccc(C)cc1S(=O)(=O)NCCCCCNc1nc(-c2ccncc2)cs1` [Example 75, 2-(5-(2-Methoxy-5-methyl)phenylsulfonylamino)pentylamino-4-(4-pyridyl)thiazole hydrogen chloride], which Ki ([1]; Table 5) is on record?
Answer: > 10000 nM

Question: What about the Ki [2] of the same molecule?
Answer: > 10000 nM

Question: And the Ki [3, 6]?
Answer: 5 nM

Question: And the Ki ([4]; Table 5)?
Answer: > 10000 nM

Question: How did the Ki ([1]; Table 5) turn out when `COc1ccc(C)cc1S(=O)(=O)NCCCCCNc1nc(-c2sc3ccc(Cl)cc3c2C)cs1` [Example 77, N1-(5-{[4-(5-Chloro-3-methylbenzo[b]thiophen-2-yl)-1,3-thiazol-2-yl]amino}pentyl)-2-methoxy-5-methyl-1-benzenesulfonamide] was run?
Answer: > 10000 nM

Question: And the Ki [2]?
Answer: > 10000 nM

Question: And the Ki [3, 6]?
Answer: 297 nM

Question: And the Ki ([4]; Table 5)?
Answer: > 10000 nM

Question: Which Ki ([1]; Table 6) does the source give for `O=S(=O)(NC[C@H]1CC[C@H](Nc2nc3c(s2)CCSc2ccccc2-3)CC1)c1cccc2nsnc12` [Example 118, N4-{[4-(4,5-Dihydrobenzo[2,3]thiepino[4,5-d][1,3]thiazol-2-ylamino)cyclohexyl]methyl}-2,1,3-benzothiadiazole-4-sulfonamide] here?
Answer: > 10000 nM

Question: What about the Ki [2] of the same molecule?
Answer: > 10000 nM

Question: What about the Ki [3, 5] of the same molecule?
Answer: 2.4 nM

Question: And the Ki ([4]; Table 6)?
Answer: > 10000 nM

Question: What does the source list for `CCS(=O)(=O)NCCCCCNc1nc2c(s1)CCSc1ccccc1-2` [Example 109, N1-[5-(4,5-Dihydrobenzo[2,3]thiepino[4,5-d][1,3]thiazol-2-ylamino)pentyl]-1-ethanesulfonamide]?
Answer: Ki ([1]; Table 6): > 10000 nM; Ki [2]: > 10000 nM; Ki [3, 5]: 3.7 nM; Ki ([4]; Table 6): > 10000 nM

Question: For `CCS(=O)(=O)NC[C@H]1CC[C@H](Nc2nc3c(s2)CCSc2ccccc2-3)CC1` [Example 107, N1-{[4-(4,5-Dihydrobenzo[2,3]thiepino[4,5-d][1,3]thiazol-2-ylamino)cyclohexyl]methyl}-1-ethanesulfonamide], which Ki ([1]; Table 6) is on record?
Answer: > 10000 nM

Question: What about the Ki [2] of the same molecule?
Answer: > 10000 nM

Question: What about the Ki [3, 5] of the same molecule?
Answer: 5.1 nM

Question: And the Ki ([4]; Table 6)?
Answer: > 10000 nM

Question: Which results are given for `O=S(=O)(NC[C@H]1CC[C@H](Nc2nc(-c3cc(-c4ccccc4)no3)cs2)CC1)c1cccc2cccnc12` [Example 81, trans-N8-[(4-{[4-(3-Phenyl-5-isoxazolyl)-1,3-thiazol-2-yl]amino}cyclohexyl)methyl]-8-quinolinesulfonamide]?
Answer: Ki ([1]; Table 5): > 10000 nM; Ki [2]: > 10000 nM; Ki [3, 6]: 155 nM; Ki ([4]; Table 5): > 10000 nM

Question: `O=S(=O)(NCCCCCNc1nc2c(s1)CCSc1ccccc1-2)c1cccs1` [Example 110, N2-[5-(4,5-Dihydrobenzo[2,3]thiepino[4,5-d][1,3]thiazol-2-ylamino)pentyl]-2-thiophenesulfonamide] was tested. Which Ki ([1]; Table 6) did it give?
Answer: > 10000 nM

Question: And the Ki [2]?
Answer: > 10000 nM

Question: What about the Ki [3, 5] of the same molecule?
Answer: 2.6 nM

Question: And the Ki ([4]; Table 6)?
Answer: > 10000 nM

Question: Which Ki ([1]; Table 5) does the source give for `CCN(CC)S(=O)(=O)NCCCCCNc1nc(-c2ccccn2)cs1` [Example 59, 2-(5-Diethylaminosulfonylamino)pentylamino-4-(2-pyridyl)-thiazole hydrogen chloride] here?
Answer: > 10000 nM

Question: And the Ki [2]?
Answer: > 10000 nM

Question: What about the Ki ([4]; Table 5) of the same molecule?
Answer: > 10000 nM

Question: Which Ki [3, 7] does the source give for `CCNc1nc(NCC)nc(NCC2CCC(CNS(=O)(=O)c3cc(C)ccc3OC)CC2)n1` (stereo not drawn) [Example 31, N1-[4-([4,6-di(ethylamino)-1,3,5-triazin-2-yl]aminomethyl)cyclohexyl]methyl-2-methoxy-5-methyl-1-benzenesulfonamide] here?
Answer: 25 nM

Question: For `CC(C)N(C=O)[C@H]1CC[C@H](CNc2nc3c(s2)CCSc2ccccc2-3)CC1` [Example 165, trans-N-4-[(4,5-Dihydrobenzo[2,3]thiepino[4,5-d][1,3]thiazol-2-ylamino)methyl]cyclohexyl-N-isopropylformamide], which Ki [3, 5] is on record?
Answer: 4.8 nM

Question: For `O=S(=O)(NC[C@H]1CC[C@H](Nc2nc3c(s2)CCSc2ccccc2-3)CC1)c1c(Cl)cccc1Cl` [Example 152, N1-{[4-(4,5-Dihydrobenzo[2,3]thiepino[4,5-d][1,3]thiazol-2-ylamino)cyclohexyl]methyl}-2,6-dichloro-1-benzenesulfonamide], which Ki [3, 5] is on record?
Answer: 17.4 nM

Question: For `O=S(=O)(NCCCCCNc1nc(-c2ccccn2)cs1)c1ccc(F)c(F)c1` [Example 64, 2-(5-(3,4-Difluorophenyl)sulfonylamino)pentylamino-4-(2-pyridyl)thiazole hydrogen chloride], which Ki [3, 6] is on record?
Answer: 42 nM

Question: Which Ki ([3]; Table 1, read-out: Ki (nM) hNPY-5) does the source give for `CC(C)Nc1nc(NCC2CCC(CNS(=O)(=O)c3cccc4ccccc34)CC2)nc(N2C[C@@H](C)O[C@@H](C)C2)n1` (stereo partly drawn) [Example 25, N1-{[4-({[4-[(2R,6S)-2,6-dimethyl-1,4-oxazinan-4-yl]-6-(isopropylamino)-1,3,5-triazin-2-yl]amino}methyl)cyclohexyl]methyl}-1-naphthalenesulfonamide] here?
Answer: 135 nM

Question: With `Cn1cnc(S(=O)(=O)NC[C@H]2CC[C@H](Nc3nc4c(s3)CCSc3ccccc3-4)CC2)c1` [Example 125, N4-{[4-(4,5-Dihydrobenzo[2,3]thiepino[4,5-d][1,3]thiazol-2-ylamino)cyclohexyl]methyl}-1-methyl-1h-4-imidazolesulfonamide] as the molecule, how does the Ki [3, 5] read?
Answer: 33 nM

Question: With `O=S(=O)(NCCCCCNc1nc2c(s1)CCSc1ccccc1-2)c1cccc2ccccc12` [Example 127, N1-[5-(4,5-Dihydrobenzo[2,3]thiepino[4,5-d][1,3]thiazol-2-ylamino)pentyl]-1-naphthalenesulfonamide] as the molecule, how does the Ki [3, 5] read?
Answer: 17.2 nM

Question: `Cc1nc(-c2csc(NC[C@H]3CC[C@H](CNS(=O)(=O)N4CCOCC4)CC3)n2)c(C)s1` [Example 100, trans-N4-[4-([4-(2,5-Dimethyl-1,3-thiazol-4-yl)-1,3-thiazol-2-yl]aminomethyl)cyclohexyl]methyl-4-morpholinesulfonamide] was tested. Which Ki [3, 6] did it give?
Answer: 3.3 nM

Question: `O=[N+]([O-])c1ccccc1S(=O)(=O)NC[C@H]1CC[C@H](Nc2nc3c(s2)CCSc2ccccc2-3)CC1` [Example 124, N1-{[4-(4,5-Dihydrobenzo[2,3]thiepino[4,5-d][1,3]thiazol-2-ylamino)cyclohexyl]methyl}-2-nitro-1-benzenesulfonamide] was tested. Which Ki [3, 5] did it give?
Answer: 11.5 nM

Question: `CCNc1nc(NCC)nc(NCc2ccccn2)n1` [Example 58, N2,N4-diethyl-N6-(2-pyridylmethyl)-1,3,5-triazine-2,4,6-triamine] was tested. Which Ki ([3]; Table 4, read-out: Ki (nM) hNPY-5) did it give?
Answer: > 100000 nM

Question: With `CCNc1nc(NCC)nc(NCC2CCC(CNS(=O)(=O)c3cccnc3)CC2)n1` (stereo not drawn) [Example 34, N3-[4-([4,6-di(ethylamino)-1,3,5-triazin-2-yl]aminomethyl)cyclohexyl]methyl-3-pyridinesulfonamide] as the molecule, how does the Ki [3, 7] read?
Answer: 427 nM

Question: `CC(C)Nc1nc(NCC2CCC(CNS(=O)(=O)N3CCCCC3)CC2)nc(N2CCCCC2)n1` (stereo not drawn) [Example 45, N1-[4-([4-(isopropylamino)-6-piperidino-1,3,5-triazin-2-yl]aminomethyl)cyclohexyl]methyl-1-piperidinesulfonamide] was tested. Which Ki ([3]; Table 3, read-out: Ki (nM) hNPY-5) did it give?
Answer: 59 nM
